Measurements taken from PMC8284666, “Biochemical characterization of protease activity of Nsp3 from SARS-CoV-2 and its inhibition by nanobodies” (PLoS ONE, 2021).
Where two headings read alike, the source gives them in different places.

B1: NbSL18, recombinant, purified from bacteria (VHH)
VHH: QVQLQESGGGLVQAGGSLRLSCAASGSIFLPGFMGWYRQAPGKERELVASITPGTTTNYADSVKGRFTISRDNAKNTVYLQMNSLKPEDTAVYYCAAYVFVYRNYWGQGTQVTVSS

How the values were obtained:
Nsp3^core [1] = biological target: T1, Nsp3^core (Severe acute respiratory syndrome coronavirus 2, UniProt P0DTC1); experiment: biochemical
PLpro from SARS-CoV-2 = PLpro from SARS-CoV-2 (Severe acute respiratory syndrome coronavirus 2, UniProt P0DTC1); experiment: biochemical; conditions: for inhibition at 10 µM: read-out: percentage inhibition in the HTS
[2] = tested on: panel of 42 human DUBs and the viral ovarian tumor (vOTU); assay type: biochemical; conditions: tested at 10 and 1 μM; result in words
PLpro^CoV-1 = conditions: read-out: IC50 against PLpro^CoV-1; cited from earlier work
SARS-CoV-2 PLpro = conditions: cited from earlier work
Nsp3^core [3] = biological target: T1, Nsp3^core; assay type: biochemical
[4] = biological target: SARS-CoV-2 Nsp3 residues 743-1072 (PL-pro), purified, tags removed (SARS-CoV-2, Wuhan-Hu-1 (MN908947.3), UniProt P0DTD1); experiment: ITC; conditions: both partners purified
[5] = screened in duplicate at 10 μM, hit criterion

Molecule	IC50 (Nsp3^core [1]) [nM]	IC50 (PLpro from SARS-CoV-2) [nM]	selectivity / off-target inhibition in the DUB panel [2]	further results
CC(Cc1ccc(O)c(O)c1)C(C)Cc1ccc(O)c(O)c1 (stereo not shown) [Nordihydroguaiaretic acid]	1620	1060	–	inhibition at 10 µM (PLpro from SARS-CoV-2; [5]): > 50%
Auranofin	~1000	–	inhibited–at different extents–several other human DUBs	IC50 (PLpro from SARS-CoV-2; read-out: IC50 against PLpro): ~1000 nM
CCN(CC)C(=S)SSC(=S)N(CC)CC [Disulfiram]	660	690	inhibited–at different extents–several other human DUBs	inhibition at 10 µM (PLpro from SARS-CoV-2; [5]): > 50%
Nc1nc2nc[nH]c2c(=S)[nH]1 [Thioguanine]	–	4540	–	–
GRL-0617	–	–	–	IC50 (PLpro^CoV-1): 600 nM; IC50 (SARS-CoV-2 PLpro): ~2000 nM; inhibition of viral polypeptide (Nsp1-2 FL) cleavage by Nsp3 (Nsp3^core [3]): able to inhibit cleavage of the viral polypeptide
O=c1sn(-c2cccc3ccccc23)c(=O)n1Cc1ccccc1 [Tideglusib]	1480	210	inhibited–at different extents–several other human DUBs	inhibition at 10 µM (PLpro from SARS-CoV-2): > 50%
B1	–	–	–	Kd [4]: ~500 nM
